Measured values: US4068074A, “Cephalosporin derivatives having at the 3-position of the cephem ring a heterocyclic thiomethyl group with a carboxy or sulfo group and at the 7-position of the cephem ring an α-heterocylic acylaminophenyl-acetamide group” (priority 1974, dated 1978)
≈ marks a conversion by molar mass, not a printed value. Read-outs that look alike come from different tables or passages of the source.

Key:
Type in all cases: cell-based
[1] = tested on: Pseudomonas aeruginosa 99 (Gentamycin resistant); assay: MIC against bacteria (Table I), strain (5); conditions: (5) Pseudomonas aeruginosa 99 (Gentamycin resistant)
Description: (§1) Now, for illustrating the excellent pharmacological effects of the compounds of this invention, the values of MIC (γ/ml.) of the compounds against various bacteria are shown in Table 1, in which the compounds of this invention used are shown by example numbers.
(5) Pseudomonas aeruginosa 99 (Gentamycin resistant)

[2] = tested on: Shigella flexneri 2a 1675; assay: MIC against bacteria (Table I), strain (11); conditions: 2A1675
Description: as §1

[3] = tested on: Pseudomonas aeruginosa ATCC 8689; assay: MIC against bacteria (Table I), strain (4); conditions: (4) Pseudomonas aeruginosa ATCC 8689
Description: as §1
(4) Pseudomonas aeruginosa ATCC 8689

Salmonella enteritidis = assay: MIC against bacteria (Table I), strain (10)
Description: as §1
(10) Salmonella enteritidis

[4] = tested on: Psuedomonas ovalis IMA 1002; assay: MIC against bacteria (Table I), strain (6); conditions: (6) Psuedomonas ovalis IMA 1002
Description: as §1
(6) Psuedomonas ovalis IMA 1002

[5] = tested on: Bacillus megatherium 10778; assay: MIC against bacteria (Table I), strain (13)
Description: as §1

[6] = tested on: Bacillus subtilis ATCC 6633; assay: MIC against bacteria (Table I), strain (14)
Description: as §1
(14) Bacillus subtilis ATCC 6633

[7] = tested on: Escherichia coli kauffmann 0-1; assay: MIC against bacteria (Table I), strain (7)
Description: as §1
(7) Escherichia coli kauffmann 0-1

[8] = tested on: Micrococcus flavus ATCC 10240; assay: MIC against bacteria (Table I), strain (15)
Description: as §1
(15) Micrococcus flavus ATCC 10240

Staphylococcus Onuma = assay: MIC against bacteria (Table I), strain (18)
Description: as §1
(18) Staphylococcus Onuma

[9] = tested on: Proteus mirabilis IXM OM-19; assay: MIC against bacteria (Table I), strain (3)
Description: as §1
(3) Proteus mirabilis IXM OM-19

[10] = tested on: Klebsiella pneumoniae ATCC 10031; assay: MIC against bacteria (Table I), strain (8)
Description: as §1
(8) Klebsiella pneumoniae ATCC 10031

[11] = tested on: Staphylococcus aureus 209P; assay: MIC against bacteria (Table I), strain (16)
Description: as §1
(16) Staphylococcus aureus 209P

Shigella sonnei II 37148 = assay: MIC against bacteria (Table I), strain (12); conditions: II37148
Description: as §1

Salmonella typhi H901 W = assay: MIC against bacteria (Table I), strain (9)
Description: as §1
(9) Salmonella typhi H901 W

Proteus vulgaris 0X 19US = assay: MIC against bacteria (Table I), strain (2)
Description: as §1
(2) Proteus vulgaris 0X 19US

Proteus vulgaris OXK US = assay: MIC against bacteria (Table I), strain (1)
Description: as §1
(1) Proteus vulgaris OXK US

[12] = tested on: Staphylococcus Shimanishi; assay: MIC against bacteria (Table I), strain (17)
Description: as §1
(17) Staphylococcus Shimanishi

[13] = (11) Shigella flexneri 2a 1675, read-out: MIC
[14] = Salmonella enterica, (10) Salmonella enteritidis, read-out: MIC
[15] = (13) Bacillus megatherium 10778, read-out: MIC
[16] = ATCC6633, (14) Bacillus subtilis ATCC 6633, read-out: MIC
[17] = ATCC10240, (15) Micrococcus flavus ATCC 10240, read-out: MIC
[18] = (18) Staphylococcus Onuma, read-out: MIC
[19] = IXMOM19, (3) Proteus mirabilis IXM OM-19, read-out: MIC
[20] = ATCC10031, (8) Klebsiella pneumoniae ATCC 10031, read-out: MIC
[21] = (12) Shigella sonnei II 37148, read-out: MIC
[22] = 0X19US, (2) Proteus vulgaris 0X 19US, read-out: MIC
[23] = (1) Proteus vulgaris OXK US, read-out: MIC
[24] = (17) Staphylococcus Shimanishi, read-out: MIC

SMILES	MIC ([1]; read-out: MIC)	MIC [2, 13]	MIC ([3]; ATCC8689, read-out: MIC)	MIC (Salmonella enteritidis; [14])	MIC ([4]; read-out: MIC)	MIC [5, 15]	MIC [6, 16]	MIC ([7]; Escherichia coli)	MIC [8, 17]	MIC (Staphylococcus Onuma; [18])	MIC [9, 19]	MIC [10, 20]	MIC ([11]; Staphylococcus aureus, 209P)	MIC (Shigella sonnei II 37148; [21])	MIC (Salmonella typhi H901 W; Salmonella enterica, TYPHI)	MIC (Proteus vulgaris 0X 19US; [22])	MIC (Proteus vulgaris OXK US; [23])	MIC [12, 24]	MIC (Staphylococcus Onuma; Staphylococcus)	MIC ([5]; Bacillus, 10778)	also measured
Cc1cc(O)c(C(=O)N[C@@H](C(=O)N[C@@H]2C(=O)N3C(C(=O)O)=C(CSc4nnc(SCC(=O)O)s4)CS[C@H]23)c2ccccc2)cn1 [Example 29, 7-[D-α-(4-hydroxy-6-methylnicotinoylamido)-α-phenylacetamido]-3-(5-carboxymethylthio-1,3,4,-thiadiazol-2-yl)thiomethyl-Δ^3-cephem-4-carboxylic acid]	6.25 µg/mL (≈ 9.07 µM)	0.78 µg/mL (≈ 1.13 µM)	12.5 µg/mL (≈ 18.1 µM)	0.78 µg/mL (≈ 1.13 µM)	12.5 µg/mL (≈ 18.1 µM)	0.78 µg/mL (≈ 1.13 µM)	0.78 µg/mL (≈ 1.13 µM)	3.13 µg/mL (≈ 4.54 µM)	6.25 µg/mL (≈ 9.07 µM)	12.5 µg/mL (≈ 18.1 µM)	0.78 µg/mL (≈ 1.13 µM)	6.25 µg/mL (≈ 9.07 µM)	1.56 µg/mL (≈ 2.26 µM)	3.13 µg/mL (≈ 4.54 µM)	1.56 µg/mL (≈ 2.26 µM)	12.5 µg/mL (≈ 18.1 µM)	< 0.09 µg/mL	6.25 µg/mL (≈ 9.07 µM)			
O=C(O)CCC(=O)Nc1nnc(SCC2=C(C(=O)O)N3C(=O)[C@@H](NC(=O)[C@H](NC(=O)c4csccc4=O)c4ccccc4)[C@H]3SC2)s1 [Example 1, 7-[D-α-(4-oxo-4H-thiopyran-3-ylcarboxamido)-α-phenylacetamido]-3-[5-(3-carboxypropionylamino)-1,3,4-thiadiazol-2-yl]thiomethyl-Δ^3-cephem-4-carboxylic acid]	50 µg/mL (≈ 69.8 µM)	6.25 µg/mL (≈ 8.72 µM)	25 µg/mL (≈ 34.9 µM)	0.78 µg/mL (≈ 1.09 µM)	25 µg/mL (≈ 34.9 µM)	0.78 µg/mL (≈ 1.09 µM)	0.39 µg/mL (≈ 0.544 µM)		3.13 µg/mL (≈ 4.37 µM)		0.78 µg/mL (≈ 1.09 µM)			25 µg/mL (≈ 34.9 µM)	1.56 µg/mL (≈ 2.18 µM)	0.19 µg/mL (≈ 0.265 µM)	0.19 µg/mL (≈ 0.265 µM)	3.13 µg/mL (≈ 4.37 µM)	6.25 µg/mL (≈ 8.72 µM)		MIC ([7]; (7) Escherichia coli kauffmann 0-1, read-out: MIC): 25 µg/mL (≈ 34.9 µM); MIC ([10]; Klebsiella pneumoniae, ATCC10031): 6.25 µg/mL (≈ 8.72 µM); MIC ([11]; (16) Staphylococcus aureus 209P, read-out: MIC): 0.78 µg/mL (≈ 1.09 µM)
O=C(O)CSc1nnc2sc(SCC3=C(C(=O)O)N4C(=O)C(NC(=O)[C@H](NC(=O)c5cnccc5O)c5ccccc5)[C@H]4SC3)nn12 (stereo partly drawn) [Example 34, 7-[D-α-(4-hydroxynicotinoyl-amido)-α-phenylacetamido]-3-(5-carboxymethylthio-[1,2,4]-triazolo-[3,4-b]-[1,3,4]-thiadiazol-2yl)thiomethyl-Δ^3-cephem-4-carboxylic acid]																					MIC [1]: 12.5 µg/mL (≈ 17.5 µM); MIC [3]: 25 µg/mL (≈ 35 µM); MIC (Salmonella enteritidis; (10) Salmonella enteritidis): 1.56 µg/mL (≈ 2.18 µM); MIC [4]: 25 µg/mL (≈ 35 µM); MIC ([5]; (13) Bacillus megatherium 10778): 0.78 µg/mL (≈ 1.09 µM); MIC ([6]; (14) Bacillus subtilis ATCC 6633): 1.56 µg/mL (≈ 2.18 µM); MIC ([7]; (7) Escherichia coli kauffmann 0-1): 12.5 µg/mL (≈ 17.5 µM); MIC ([8]; (15) Micrococcus flavus ATCC 10240): 12.5 µg/mL (≈ 17.5 µM); MIC (Staphylococcus Onuma; (18) Staphylococcus Onuma): 25 µg/mL (≈ 35 µM); MIC ([9]; (3) Proteus mirabilis IXM OM-19): 0.78 µg/mL (≈ 1.09 µM); MIC ([10]; (8) Klebsiella pneumoniae ATCC 10031): 12.5 µg/mL (≈ 17.5 µM); MIC ([11]; (16) Staphylococcus aureus 209P): 3.13 µg/mL (≈ 4.38 µM); MIC (Salmonella typhi H901 W; (9) Salmonella typhi H901 W): 6.25 µg/mL (≈ 8.74 µM); MIC (Proteus vulgaris 0X 19US; (2) Proteus vulgaris 0X 19US): 0.78 µg/mL (≈ 1.09 µM); MIC (Proteus vulgaris OXK US; (1) Proteus vulgaris OXK US): < 0.09 µg/mL; MIC ([12]; (17) Staphylococcus Shimanishi): 12.5 µg/mL (≈ 17.5 µM)
CC1=C(C(=O)O)N2C(=O)[C@@H](NC(=O)[C@H](N)c3ccccc3)[C@H]2SC1 [Cephalexin, reference compound]		6.25 µg/mL (≈ 18 µM)	> 100 µg/mL					10 µg/mL (≈ 28.8 µM)				3 µg/mL (≈ 8.64 µM)	1.56 µg/mL (≈ 4.49 µM)	6.25 µg/mL (≈ 18 µM)	6.25 µg/mL (≈ 18 µM)				12.5 µg/mL (≈ 36 µM)	0.78 µg/mL (≈ 2.25 µM)	MIC (Salmonella enteritidis; Salmonella enterica, ENTERITIDIS): 6.25 µg/mL (≈ 18 µM); MIC ([6]; Bacillus subtilis, ATCC6633): 0.78 µg/mL (≈ 2.25 µM); MIC ([8]; Micrococcus flavus, ATCC10240): 1.56 µg/mL (≈ 4.49 µM); MIC (Proteus vulgaris 0X 19US; Proteus vulgaris, 0X19US): 30 µg/mL (≈ 86.4 µM); MIC (Proteus vulgaris OXK US; Proteus vulgaris): 30 µg/mL (≈ 86.4 µM); MIC ([12]; Staphylococcus): 6.25 µg/mL (≈ 18 µM)
Cc1cncc(C(=O)N[C@@H](C(=O)N[C@@H]2C(=O)N3C(C(=O)O)=C(CSc4nnc(SCC(=O)O)s4)CS[C@H]23)c2ccccc2)c1O [Example 27, 7-[D-α-(4-hydroxy-3-methylpyridin-5-ylcarboxamido)-α-phenylacetamido]-3-(5-carboxymethylthio-1,3,4-thiadiazol-2-yl)thiomethyl-Δ^3-cephem-4-carboxylic acid]	6.25 µg/mL (≈ 9.07 µM)		12.5 µg/mL (≈ 18.1 µM)		25 µg/mL (≈ 36.3 µM)			3.13 µg/mL (≈ 4.54 µM)	6.25 µg/mL (≈ 9.07 µM)	6.25 µg/mL (≈ 9.07 µM)		1.56 µg/mL (≈ 2.26 µM)	1.56 µg/mL (≈ 2.26 µM)		0.78 µg/mL (≈ 1.13 µM)		< 0.09 µg/mL	6.25 µg/mL (≈ 9.07 µM)		0.78 µg/mL (≈ 1.13 µM)	MIC ([2]; Shigella flexneri): 0.78 µg/mL (≈ 1.13 µM); MIC ([6]; Bacillus subtilis, ATCC6633): 0.78 µg/mL (≈ 1.13 µM); MIC ([9]; Proteus mirabilis, IXMOM19): 0.78 µg/mL (≈ 1.13 µM); MIC (Shigella sonnei II 37148; Shigella sonnei): 3.13 µg/mL (≈ 4.54 µM); MIC (Proteus vulgaris 0X 19US; Proteus vulgaris, 0X19US): 0.78 µg/mL (≈ 1.13 µM)
